The assay addresses interaction between p53 and MDM2 proteins (Homo sapiens, UniProt Q00987). The experiment in a line: HTRF assay of inhibition of p53-MDM2 interaction (GST-MDM2 / biotinylated p53 peptide).

Molecules are shown by their SMILES.

Sequence of interaction between p53 and MDM2 proteins (Q00987 whole entry): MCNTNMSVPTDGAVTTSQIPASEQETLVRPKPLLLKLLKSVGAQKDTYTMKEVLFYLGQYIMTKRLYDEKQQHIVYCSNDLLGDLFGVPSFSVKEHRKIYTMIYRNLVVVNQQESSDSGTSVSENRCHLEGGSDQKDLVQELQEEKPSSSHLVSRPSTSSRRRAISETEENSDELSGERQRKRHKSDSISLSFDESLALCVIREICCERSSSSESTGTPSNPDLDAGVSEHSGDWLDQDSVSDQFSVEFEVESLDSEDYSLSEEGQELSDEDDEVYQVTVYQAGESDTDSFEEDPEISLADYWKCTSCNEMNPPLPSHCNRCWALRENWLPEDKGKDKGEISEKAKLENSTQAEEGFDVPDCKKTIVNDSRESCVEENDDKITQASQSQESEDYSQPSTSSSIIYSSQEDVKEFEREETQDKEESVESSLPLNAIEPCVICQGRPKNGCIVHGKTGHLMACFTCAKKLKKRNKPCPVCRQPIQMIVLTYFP
Protocol: The ability of the compounds to inhibit the interaction between p53 and MDM2 proteins was measured by an HTRF (homogeneous time-resolved fluorescence) assay in which recombinant GST-tagged MDM2 binds to a peptide that resembles the MDM2-interacting region of p53. Binding of GST-MDM2 protein and p53-peptide (biotinylated on its N-terminal end) is registered by the FRET (fluorescence resonance energy transfer) between Europium (Eu)-labeled anti-GST antibody and streptavidin-conjugated Allophycocyanin (APC).
Test is performed in black flat-bottom 384-well plates (Costar) in a total volume of 40 uL containing: 90 nM biotinylate peptide, 160 ng/ml GST-MDM2, 20 nM streptavidin-APC (PerkinElmerWallac), 2 nM Eu-labeled anti-GST-antibody (PerkinElmerWallac), 0.2% bovine serum albumin (BSA), 1 mM dithiothreitol (DTT) and 20 mM Tris-borate saline (TBS) buffer as follows: Add 10 uL of GST-MDM2 (640 ng/ml working solution) in reaction buffer to each well. […] Incubate at 37° C. for 1 h. Add 20 uL streptavidin-APC and Eu-anti-GST antibody mixture (6 nM Eu-anti-GST and 60 nM streptavidin-APC working solution) in TBS buffer with 0.2% BSA, shake at room temperature for 30 minutes and read using a TRF-capable plate reader at

One may read the IC50 as the concentration at which inhibition is half-maximal. Low values mean inhibition by little substance, high ones a need for much substance. `COc1cc(N2CN3[C@@H](CC(C)(C)C)[C@@]4(C(=O)N(CO)c5cc(Cl)ccc54)[C@@H](c4cccc(Cl)c4F)[C@@H]3C2=O)ccc1C(=O)O` (racemic) [Example 16, Rac 4-((3R,5′S,7′S,7a′R)-6-chloro-7′-(3-chloro-2-fluorophenyl)-1-(hydroxymethyl)-5′-neopentyl-1′,2-dioxo-7′,7a′-dihydrospiro[indoline-3,6′-pyrrolo[1,2-c]imidazole]-2′(1′H,3′H,5′H)-yl)-2-methoxybenzoic acid] returned an IC50 of 25 nM.

On to `COc1cc(N2CN3[C@@H](CC(C)(C)C)[C@@]4(C(=O)Nc5cc(Cl)ccc54)[C@@H](c4cccc(Cl)c4F)[C@@H]3C2=O)ccc1C(=O)O` (racemic) [Example 18, Rac 4-((3R,5′S,7′S,7a′R)-6-chloro-7′-(3-chloro-2-fluorophenyl)-5′-neopentyl-1′,2-dioxo-7′,7a′-dihydrospiro[indoline-3,6′-pyrrolo[1,2-c]imidazole]-2′(1′H,3′H,5′H)-yl) 2-methoxybenzoic acid], for which the IC50 was determined as 7 nM.

On to `CC(C)(C)CC1N2CN(CC(=O)O)C(=O)C2C(c2cccc(Cl)c2F)C12C(=O)Nc1cc(Cl)ccc12` (racemic) [Example 37, rac of 2-((3R,5′S,7′S,7a′R)-6-chloro-7′-(3-chloro-2-fluorophenyl)-5′-neopentyl-1′,2-dioxo-7′,7a′-dihydrospiro[indoline-3,6′-pyrrolo[1,2-c]imidazole]-2′(1′H,3′H,5′H)-yl)acetic acid], for which half-maximal inhibition (IC50) required 13 nM.

On to `COc1cc(N2CN3[C@@H](CC(C)(C)C)[C@@]4(C(=O)Nc5cc(Cl)ccc54)[C@@H](c4cccc(Cl)c4F)[C@@H]3C2=O)ccc1C(N)=O` (single isomer, unassigned) [Example 25], for which the IC50 was determined as 4 nM.

Take `COc1cc(C(=O)O)ccc1N1CN2[C@@H](CC(C)(C)C)[C@@]3(C(=O)Nc4cc(Cl)ccc43)[C@@H](c3cccc(Cl)c3F)[C@@H]2C1=O` [Example 21, chiral 4-((3S,5′R,7′R,7a′S)-6-chloro-7′-(3-chloro-2-fluorophenyl)-5′-neopentyl-1′,2-dioxo-7′,7a′-dihydrospiro[indoline-3,6′-pyrrolo[1,2-c]imidazole]-2′(1′H,3′H,5′H)-yl)-3-methoxybenzoic acid]: it took 6 nM to reach half-maximal inhibition (IC50).

For `COc1cc(C(N)=O)ccc1N1CN2[C@@H](CC(C)(C)C)[C@@]3(C(=O)Nc4cc(Cl)ccc43)[C@@H](c3cccc(Cl)c3F)[C@@H]2C1=O` [Example 22, chiral 4-((3R,5′S,7′S,7a′R)-6-chloro-7′-(3-chloro-2-fluorophenyl)-5′-neopentyl-1′,2-dioxo-7′,7a′-dihydrospiro[indoline-3,6′-pyrrolo[1,2-c]imidazole]-2′(1′H,3′H,5′H)-yl)-3-methoxybenzamide], the IC50 was 5 nM.

For the compound `CC(C)(C)C[C@H]1N2CN(c3ccc(C(=O)O)cc3)C(=O)[C@@H]2[C@@H](c2cccc(Cl)c2F)[C@@]12C(=O)Nc1cc(Cl)ccc12` [Example 30, chiral 4-((3S,5′R,7′R,7a′S)-6-chloro-7′-(3-chloro-2-fluorophenyl)-5′-neopentyl-1′,2-dioxo-7′,7a′-dihydrospiro[indoline-3,6′-pyrrolo[1,2-c]imidazole]-2′(1′H,3′H,5′H)-yl)benzoic acid], the concentration for half-maximal inhibition (IC50) came to 128 nM.

In turn, `COc1cc(N2CN3[C@@H](CC(C)(C)C)[C@@]4(C(=O)N(CO)c5cc(Cl)ccc54)[C@@H](c4cccc(Cl)c4F)[C@@H]3C2=O)ccc1C(N)=O` [Example 31] registered an IC50 of 12 nM.

Source of the values: US20120071499A1, “Substituted Spiro[3H-Indole-3,6'(5'H)-[1H]Pyrrolo[1,2c]Imidazole-1',2(1H,2'H)-diones” (priority 2010, published 2012).
